From patent US11957792B2, “Taste-masked pharmaceutical compositions containing diclofenac” (GLATT AG, priority 2012, dated 2024)
In brackets after ≈: the same amount, converted by molar mass.

Assays:
[1] = Agglomerate formation at pH 1.1 (such as gastric fluid); format: physicochemical
[2] = Equilibrium solubility, saturation shake-flask method; format: physicochemical; conditions: 37 °C, thermodynamic from solid, mean ± SD (n=3)
Procedure: The solubility of diclofenac free acid, sodium and potassium was comparatively evaluated in media reflecting the oral way of administration, as e.g. with different pH values. The equilibrium solubility was determined using the saturation shake-flask method. Briefly, an excess amount of drug was added into the different media maintained at 37±0.5° C. and shaken for at least 24 hours. After equilibrium was reached, the excess of solid was removed and the diclofenac concentration in the supernatant solutions was determined by HPLC.

formation of agglomerates [1]	solubility ([2]; 0.1N HCl, pH 1.1, simulated gastric fluid, 0.1N HCl pH 1.1) [µg/mL]	solubility ([2]; simulated gastric fluid, pH 1.6, simulated gastric fluid, Simulated gastric fluid pH 1.6) [µg/mL]	SMILES
form agglomerates			O=C(O)Cc1ccccc1Nc1c(Cl)cccc1Cl [Diclofenac sodium]
not diclofenac acid form agglomerates	2.49 ± 0.15 (≈ 8.41 µM)	1.72 ± 0.01 (≈ 5.81 µM)	O=C(O)Cc1ccccc1Nc1c(Cl)cccc1Cl [Diclofenac acid, 2-[(2,6-Dichlorophenyl)amino]benzeneacetic acid]
form agglomerates			O=C(O)Cc1ccccc1Nc1c(Cl)cccc1Cl [Diclofenac potassium]
